The test has as its system B. cepacia (ATCC 25416). In words: Minimum Effective Concentration (MEC) Test Method. The format is cell-based, Burkholderia cepacia. The settings on record: 24 hours at room temperature. The method, then:
Initial testing was conducted to screen a variety of surfactants in researching for potential antimicrobial boosting agents. The initial testing followed the methodology as described in the Minimum Effective Concentration (“MEC”) Test Method described in the Test Methods section herein. To summarize, the MEC testing paired a variety of potential antimicrobial boosting agents with a variety of known antimicrobial agents to determine the MEC of the respective antimicrobial agent that must be used to provide an effective antimicrobial result, as described in further detail in the Test Methods section. The more positive the boosting characteristics of an antimicrobial boosting agent, then the lower the MEC that would be required for the paired antimicrobial agent. It is to be noted that the molarities listed in Table 1 are approximate values that were calculated based on the estimated activities of the ingredients and the molecular weights of the active ingredients. In instances where an exact activity was not available for an ingredient blend, the ingredient blend activity was estimated as the average of the upper and lower limits of the specification provided by the manufacturer of such blend. In instances where an exact molecular weight could not be calculated (for example, in compounds derived from a natural oil like coconut oil), the molecular weight of the active was estimated based on a weighted average of the molecular weights of the constituent species.
The Minimum Effective Concentration Test Method discussed herein began by adding B. cepacia (ATCC 25416) culture at a final concentration of approximately 5×10^6 CFU/mL to the composition to be challenged. The challenged composition was then allowed to incubate at room temperature for 24 hours. After 24 hours, a preservative neutralizing broth was added to the mixture and measurements were subsequently taken to determine the concentration of B. cepacia still remaining after exposure to the test composition.
The Minimum Effective Concentration was determined by completing the process described above on a series of compositions with the same concentration of antimicrobial boosting agent, but with different concentrations of antimicrobial agent. The Minimum Effective Concentration of antimicrobial agent for any given value of antimicrobial boosting agent was defined as the minimum concentration of antimicrobial agent required to reduce the concentration of B. cepacia to a level below the detection threshold for the test method, which was approximately 100 CFU/mL. In instances where multiple rounds of Minimum Effective Concentration testing were completed, the value reported is the mean of the Minimum Effective Concentration values generated by each individual series of tests.

[1] abbreviates: boosting agent (the label) at 5 mmol/L.

Where a name gives a salt, the structure may show the parent alone.

For the molecule `O=C(CO)c1ccccc1` [Hydroxyacetophenone], the “MEC of Hydroxyacetophenone (SymSave H)” value (no boosting agent) is 20 mmol/L. Take `CCCCCCCCCC[N+](C)(C)CCCS(=O)(=O)[O-]` [Decyl Sultaine, 3-(Decyldimethylammonio)-propanesulfonate inner salt]: under setting [1], the “MEC of Hydroxyacetophenone (SymSave H) paired with the potential boosting agent” value turned out to be 10 mmol/L and the “MEC of Lactic Acid (Purac FCC 88) paired with the potential boosting agent” value (from here on “MEC of Lactic Acid (Purac FCC 88) paired”) was 30 mmol/L. In the case of `CCCCCCCCCCCCCCCC[N+](C)(C)CC(=O)[O-]` [Cetyl Betaine], the “MEC of Lactic Acid (Purac FCC 88) paired” value under setting [1] amounted to 40 mmol/L. For Lauryl Glucoside, under setting [1], the “MEC of Lactic Acid (Purac FCC 88) paired” value is given as above 30 mmol/L and the “MEC of Sodium Benzoate paired with the potential boosting agent” value is reported as 10 mmol/L. On to `CC(O)C(=O)O` (stereo not shown) [Lactic Acid], for which the “MEC of Lactic Acid (Purac FCC 88)” value (no boosting agent) was found to be 60 mmol/L. As for “Sodium Laurylglucosides Hydroxypropylsulfonate”, under setting [1], the “MEC of Lactic Acid (Purac FCC 88) paired” value is above 50 mmol/L.

Consider `CCCCCCCC[N+](C)(C)[O-]` [Octyldimethylamine Oxide], for which the “MEC of Lactic Acid (Purac FCC 88) paired” value under setting [1] is 40 mmol/L. Turning to `CCCCCCCCCCCC[N+](C)(C)CC(O)CS(=O)(=O)[O-]` (stereo not shown) [Lauryl Hydroxysultaine], under setting [1], the “MEC of Caprylhydroxamic Acid (Zeastat) paired with the potential boosting agent” value is below 2 mmol/L, the “MEC of Hydroxyacetophenone (SymSave H) paired with the potential boosting agent” value was below 5 mmol/L, the “MEC of Lactic Acid (Purac FCC 88) paired” value was found to be 17 mmol/L and the “MEC of Sodium Benzoate paired with the potential boosting agent” value is recorded as below 1 mmol/L.

For `CCCCCCCC(=O)NO` [Caprylhydroxamic Acid], the “MEC of Caprylhydroxamic Acid (Zeastat)” value (no boosting agent) stood at 10 mmol/L.

`CCCCCCCC[N+](C)(C)CCCS(=O)(=O)[O-]` [Caprylyl Sultaine, 3-(N,N-Dimethyloctylammonio)propanesulfonate inner salt]: under setting [1], the “MEC of Lactic Acid (Purac FCC 88) paired” value came out at 40 mmol/L. As to `CCCCCCCCCCCCCC[N+](C)(C)CCCS(=O)(=O)[O-]` [Myristyl Sultaine, 3-(N,N-Dimethylmyristylammonio)propanesulfonate], the “MEC of Lactic Acid (Purac FCC 88) paired” value under setting [1] is recorded as 40 mmol/L. Turning to `C[N+](C)(CCCS(=O)(=O)[O-])Cc1ccccc1` [Benzyl Sultaine, 3-(Benzyldimethylammonio)propanesulfonate], the “MEC of Lactic Acid (Purac FCC 88) paired” value under setting [1] came to 40 mmol/L. Consider `O=C([O-])c1ccccc1.[Na+]` [Sodium Benzoate], for which the “MEC of Sodium Benzoate” value (no boosting agent) stood at 7.5 mmol/L. `CCCCCCCC[N+](C)(C)CC(=O)[O-]` [Octyl Betaine]: the “MEC of Lactic Acid (Purac FCC 88) paired” value under setting [1] was found to be 40 mmol/L. For `CCCCCCCCCCCC[N+](C)(C)CCCS(=O)(=O)[O-]` [Lauryl Sultaine, N-Dodecyl-N,N-dimethyl-3-ammonio-1-propanesulfonate], under setting [1], the “MEC of Hydroxyacetophenone (SymSave H) paired with the potential boosting agent” value is given as 10 mmol/L and the “MEC of Lactic Acid (Purac FCC 88) paired” value was determined as 20 mmol/L. For `CCCCCCCCCCCC(=O)OC(C)C(=O)OC(C)C(=O)[O-].[Na+]` (stereo not shown) [Sodium Lauroyl Lactylate], the “MEC of Lactic Acid (Purac FCC 88) paired” value under setting [1] is on record as 30 mmol/L. As to Lauramidopropyl Hydroxysultaine, the “MEC of Lactic Acid (Purac FCC 88) paired” value under setting [1] is reported as 30 mmol/L. Turning to `C[N+](C)(CCO)CC(O)C[N+](C)(C)CCO.[Cl-].[Cl-]` [Hydroxypropyl Bis-Hydroxyethyldimonium Chloride], under setting [1], the “MEC of Lactic Acid (Purac FCC 88) paired” value was determined as 50 mmol/L. The same measure, in the same setting: the value for Laureth-3 Phosphate was 40 mmol/L.

Source of the values: patent US12295365B2, “Composition including an antimicrobial boosting agent including a sultaine and methods of increasing the antimicrobial effectiveness of a composition” (KIMBERLY-CLARK WORLDWIDE, INC., priority 2018, dated 2025).
